Reference: ChEMBL document CHEMBL5523749, “Amphiphilic Heparinoids as Potent Antiviral Agents against SARS-CoV-2” (J Med Chem, 2024)
pKd: −log10 of the molar value. Values after ≈ are worked out from the molar mass of the structure shown.

Columns and labels:
SARS-CoV-2 [1] = assay: microbe, parasite or virus in culture; conditions: Severe acute respiratory syndrome coronavirus 2, D614, Vero C1008
Description: (§1) Antiviral activity against SARS-CoV-2 D614 isolates infected in African green monkey Vero E6 cells assessed as reduction in plaque formation treated for 1 hr prior to infection with cells incubated for 30 mins by plaque reduction neutralization test

Human alphaherpesvirus 2 = assay: Antiviral activity against HSV2 infected in CMK AH1 cells assessed as reduction in plaque number measured after 2 days incubation; conditions: Human alphaherpesvirus 2, CMK AH1, 48 h
Spike glycoprotein = Spike glycoprotein (Severe acute respiratory syndrome coronavirus 2, UniProt P0DTC2); assay: Binding affinity to RBD domain of SARS-CoV-2 spike protein assessed as dissociation constant by Isothermal Titration Calorimetry
[2] = system: Respiratory syncytial virus; assay: Antiviral activity against RSV A2 strain infected in HEp-2 cells assessed as reduction in plaque number measured after 3 days incubation; conditions: human respiratory syncytial virus, A2, HEp-2, 72 h
SARS-CoV-2 [3] = conditions: vero e6
Description: as §1

SARS-CoV-2 [4] = assay type: functional, organism-based, Severe acute respiratory syndrome coronavirus 2, G614, Vero E6
Heparanase = target: T1, Heparanase (Homo sapiens, UniProt Q9Y251); assay: Inhibition of recombinant human heparanase expressed in Insect cells assessed as fondaparinux cleavage by measuring disaccharide product incubated for 18 to 21 hrs; conditions: insect cell
T1 sequence (Q9Y251 whole entry): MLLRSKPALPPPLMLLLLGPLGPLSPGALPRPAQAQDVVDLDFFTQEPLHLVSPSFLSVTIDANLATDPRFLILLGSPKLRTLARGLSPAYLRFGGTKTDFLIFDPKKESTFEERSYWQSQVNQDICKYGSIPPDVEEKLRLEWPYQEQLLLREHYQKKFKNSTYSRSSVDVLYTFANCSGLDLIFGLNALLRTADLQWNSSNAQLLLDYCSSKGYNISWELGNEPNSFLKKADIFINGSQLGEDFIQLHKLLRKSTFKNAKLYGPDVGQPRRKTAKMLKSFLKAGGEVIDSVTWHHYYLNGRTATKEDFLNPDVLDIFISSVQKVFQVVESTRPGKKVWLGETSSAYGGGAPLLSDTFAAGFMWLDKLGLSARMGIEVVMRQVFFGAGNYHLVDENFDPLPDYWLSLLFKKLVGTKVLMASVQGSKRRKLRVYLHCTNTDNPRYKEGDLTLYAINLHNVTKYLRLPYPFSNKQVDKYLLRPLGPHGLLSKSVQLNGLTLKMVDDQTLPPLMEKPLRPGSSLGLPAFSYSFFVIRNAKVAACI

[5] = Severe acute respiratory syndrome coronavirus 2, G614, Vero C1008, read-out: IC50

Structure (SMILES)	IC50 (SARS-CoV-2 [1])	pKd (Spike glycoprotein)	IC50 (SARS-CoV-2 [3])	IC50 (SARS-CoV-2 [4]; [5])	further results
CC(C)CCC[C@@H](C)[C@H]1CC[C@H]2[C@@H]3CC[C@H]4C[C@@H](O[C@@H]5O[C@H](COS(=O)(=O)[O-])[C@@H](O[C@H]6O[C@H](COS(=O)(=O)[O-])[C@@H](O[C@H]7O[C@H](COS(=O)(=O)[O-])[C@@H](O[C@H]8O[C@H](COS(=O)(=O)[O-])[C@@H](OS(=O)(=O)[O-])[C@H](OS(=O)(=O)[O-])[C@H]8OS(=O)(=O)[O-])[C@H](OS(=O)(=O)[O-])[C@H]7OS(=O)(=O)[O-])[C@H](OS(=O)(=O)[O-])[C@H]6OS(=O)(=O)[O-])[C@H](OS(=O)(=O)[O-])[C@H]5OS(=O)(=O)[O-])CC[C@]4(C)[C@H]3CC[C@]12C.[Na+].[Na+].[Na+].[Na+].[Na+].[Na+].[Na+].[Na+].[Na+].[Na+].[Na+].[Na+].[Na+]	29.6 µg/mL	5.04			IC50 (Human alphaherpesvirus 2): ~1 µg/mL; IC50 [2]: ~1 µg/mL
O=C(CCCCCCCCCCn1cc(CNc2ccc([N+](=O)[O-])c3nonc23)nn1)NCCCCCCO[C@@H]1O[C@H](COS(=O)(=O)[O-])[C@@H](O[C@H]2O[C@H](COS(=O)(=O)[O-])[C@@H](O[C@H]3O[C@H](COS(=O)(=O)[O-])[C@@H](O[C@H]4O[C@H](COS(=O)(=O)[O-])[C@@H](OS(=O)(=O)[O-])[C@H](OS(=O)(=O)[O-])[C@H]4OS(=O)(=O)[O-])[C@H](OS(=O)(=O)[O-])[C@H]3OS(=O)(=O)[O-])[C@H](OS(=O)(=O)[O-])[C@H]2OS(=O)(=O)[O-])[C@H](OS(=O)(=O)[O-])[C@H]1OS(=O)(=O)[O-].[Na+].[Na+].[Na+].[Na+].[Na+].[Na+].[Na+].[Na+].[Na+].[Na+].[Na+].[Na+].[Na+]			Not Active	16.1 µg/mL	
CC(C)CCC[C@@H](C)[C@H]1CC[C@H]2[C@@H]3CC[C@H]4C[C@@H](O[C@@H]5O[C@@H](C(=O)O)[C@@H](O[C@@H]6O[C@@H](C(=O)O)[C@@H](OS(=O)(=O)O)[C@H](O)[C@H]6OS(=O)(=O)O)[C@H](O)[C@H]5OS(=O)(=O)O)CC[C@]4(C)[C@H]3CC[C@]12C	33.7 µg/mL (≈ 34.3 µM)				IC50 (Heparanase): Not Active
CCCCCCCCCCCCCCCCCC(=O)NCCCO[C@@H]1O[C@H](COS(=O)(=O)[O-])[C@@H](O[C@H]2O[C@H](COS(=O)(=O)[O-])[C@@H](O[C@H]3O[C@H](COS(=O)(=O)[O-])[C@@H](O[C@H]4O[C@H](COS(=O)(=O)[O-])[C@@H](O[C@H]5O[C@H](COS(=O)(=O)[O-])[C@@H](O[C@H]6O[C@H](COS(=O)(=O)[O-])C(OS(=O)(=O)[O-])[C@H](OS(=O)(=O)[O-])[C@H]6OS(=O)(=O)[O-])[C@H](OS(=O)(=O)[O-])[C@H]5OS(=O)(=O)[O-])[C@H](OS(=O)(=O)[O-])[C@H]4OS(=O)(=O)[O-])[C@H](OS(=O)(=O)[O-])[C@H]3OS(=O)(=O)[O-])[C@H](OS(=O)(=O)[O-])[C@H]2OS(=O)(=O)[O-])[C@H](OS(=O)(=O)[O-])[C@H]1OS(=O)(=O)[O-].[Na+].[Na+].[Na+].[Na+].[Na+].[Na+].[Na+].[Na+].[Na+].[Na+].[Na+].[Na+].[Na+].[Na+].[Na+].[Na+].[Na+].[Na+].[Na+] (stereo not given in full)			Not Active		IC50 (SARS-CoV-2 [4]; vero e6): Not Active
CC(C)CCC[C@@H](C)[C@H]1CC[C@H]2[C@@H]3CC[C@H]4C[C@@H](O[C@H]5O[C@H](COS(=O)(=O)[O-])[C@@H](O[C@H]6O[C@H](COS(=O)(=O)[O-])[C@@H](O[C@H]7O[C@H](COS(=O)(=O)[O-])[C@@H](O[C@H]8O[C@H](COS(=O)(=O)[O-])[C@@H](O[C@H]9O[C@H](COS(=O)(=O)[O-])[C@@H](O[C@H]%10O[C@H](COS(=O)(=O)[O-])[C@@H](OS(=O)(=O)[O-])[C@H](OS(=O)(=O)[O-])[C@H]%10OS(=O)(=O)[O-])[C@H](OS(=O)(=O)[O-])[C@H]9OS(=O)(=O)[O-])[C@H](OS(=O)(=O)[O-])[C@H]8OS(=O)(=O)[O-])[C@H](OS(=O)(=O)[O-])[C@H]7OS(=O)(=O)[O-])[C@H](OS(=O)(=O)[O-])[C@H]6OS(=O)(=O)[O-])[C@H](OS(=O)(=O)[O-])[C@H]5OS(=O)(=O)[O-])CC[C@]4(C)[C@H]3CC[C@]12C.[Na+].[Na+].[Na+].[Na+].[Na+].[Na+].[Na+].[Na+].[Na+].[Na+].[Na+].[Na+].[Na+].[Na+].[Na+].[Na+].[Na+].[Na+].[Na+]	12.2 µg/mL	5.73		21.7 µg/mL	
[N-]=[N+]=NCCCCCCCCCCC(=O)NCCCCCCCCCCCO[C@@H]1O[C@H](COS(=O)(=O)[O-])[C@@H](O[C@H]2O[C@H](COS(=O)(=O)[O-])[C@@H](O[C@H]3O[C@H](COS(=O)(=O)[O-])[C@@H](O[C@H]4O[C@H](COS(=O)(=O)[O-])[C@@H](OS(=O)(=O)[O-])[C@H](OS(=O)(=O)[O-])[C@H]4OS(=O)(=O)[O-])[C@H](OS(=O)(=O)[O-])[C@H]3OS(=O)(=O)[O-])[C@H](OS(=O)(=O)[O-])[C@H]2OS(=O)(=O)[O-])[C@H](OS(=O)(=O)[O-])[C@H]1OS(=O)(=O)[O-].[Na+].[Na+].[Na+].[Na+].[Na+].[Na+].[Na+].[Na+].[Na+].[Na+].[Na+].[Na+].[Na+]			Not Active	84.1 µg/mL	
